Experimental data taken from the NIST ThermoML archive (doi:10.1016/j.jct.2011.06.024).

Assay: mn = molality of the nth substance listed, in mol/kg
Settings: 101 kPa, Liquid, Capillary tube (Ostwald / Ubbelohde) method

[Cl-].[Cl-].[Mg+2] [magnesium chloride] + O
viscosity [mPa·s]
Settings	m1 = 0.003022	m1 = 0.004	m1 = 0.005	m1 = 0.007	m1 = 0.007995	m1 = 0.008994
303.15 K	0.8039	0.8323	0.8483	0.8693	0.8885	0.9112
308.15 K	0.7343	0.7545	0.7723	0.7896	0.8071	0.8198
313.15 K	0.6675	0.6865	0.7031	0.7195	0.7366	0.7601
318.15 K	0.6213	0.6301	0.6466	0.6648	0.6804	0.6989
323.15 K	0.5775	0.5975	0.6196	0.6244	0.6481	0.6697

O=[N+]([O-])[O-].O=[N+]([O-])[O-].[Mg+2] [magnesium nitrate] + O
viscosity [mPa·s]
Settings	m1 = 0.003029	m1 = 0.004005	m1 = 0.005059	m1 = 0.007003	m1 = 0.008141	m1 = 0.009263
303.15 K	0.8036	0.8293	0.8454	0.8685	0.8903	0.9014
308.15 K	0.7327	0.751	0.7688	0.7895	0.8097	0.8156
313.15 K	0.6665	0.6847	0.7021	0.721	0.7356	0.7458
318.15 K	0.6195	0.6272	0.6449	0.6635	0.6813	0.6958
323.15 K	0.5575	0.5773	0.5927	0.6106	0.6176	0.6305

[Cl-].[K+] [potassium chloride] + O
viscosity [mPa·s]
Settings	m1 = 0.003209	m1 = 0.003885	m1 = 0.004985	m1 = 0.006959	m1 = 0.008075	m1 = 0.009511
303.15 K	0.8063	0.8068	0.8076	0.8088	0.8094	0.8102
308.15 K	0.7279	0.7284	0.7292	0.7304	0.7286	0.7316
313.15 K	0.6616	0.6621	0.6629	0.6641	0.6647	0.6655
318.15 K	0.6045	0.6051	0.6059	0.6071	0.6077	0.6086
323.15 K	0.5552	0.5557	0.5566	0.5578	0.5584	0.5592

O=[N+]([O-])[O-].[K+] [potassium nitrate] + O
viscosity [mPa·s]
Settings	m1 = 0.003067	m1 = 0.003997	m1 = 0.005019	m1 = 0.006997	m1 = 0.008615	m1 = 0.01033
303.15 K	0.8152	0.8175	0.819	0.8217	0.8244	0.8263
308.15 K	0.7365	0.7382	0.731	0.7433	0.7449	0.7472
313.15 K	0.6691	0.6705	0.6722	0.6752	0.6775	0.6782
318.15 K	0.6139	0.6157	0.6178	0.621	0.6231	0.6253
323.15 K	0.5658	0.568	0.5701	0.5737	0.5761	0.5785

CCCCCCCCCCCCOS(=O)(=O)[O-].[Na+] [sodium dodecyl sulfate] + O
viscosity [mPa·s]
Settings	303.15 K	308.15 K	313.15 K	318.15 K	323.15 K
m1 = 0.007	0.8017	0.7228	0.6582	0.6009	0.5513
m1 = 0.01	0.8025	0.7285	0.6577	0.6026	0.5575
